Patent US7214505B1, “Cell-based assay for the detection of toxic analytes” (priority 1999, dated 2007)

What was measured:
Vibrio fischeri [1] = assay: Microtox test with bacteria immobilized on silica gel (bacteria/silica mixture); assay type: cell-based; conditions: FIGS. 3, 4 & 5; silica gel
Method: For initial testing of such a bacteria/silica mixture, rehydration of freeze-dried luminescent Vibrio fischeri Microtox® reagent is carried out as before, and 4 aliquots are taken. One aliquot of the resultant suspension is mixed with 0.5 g of silica gel, although the amount of silica gel can be varied. After the bacteria are adsorbed onto the silica gel, the resultant mixture is used as the bioluminescent reagent in toxicity assays. Two of the other aliquots are used as controls (with and without silica gel), and the third is tested with toxicant alone.

Vibrio fischeri [2] = assay: Modified Microtox test, toxicant adsorbed onto silica gel then added to bacterial suspension; conditions: FIGS. 1 and 2, 30 minutes incubation
Method: Briefly the Microtox® tests used for this study first involve rehydration of freeze-dried luminescent Vibrio fischeri bacteria, i.e. the Microtox® reagent.
The reconstituted bacterial suspension is added to a series dilution of sample in 2% NaCl and incubated for 15° C. for 0.5–15 minutes. The dilutions can be modified to give any desired concentration of sample, and the volume of reagent used per test can also be varied.
After incubation, bioluminescence is measured in a suitable photometer, such as a Deltatox® photometer or that in the Microtox® Model 500 Analyzer.
Data is recorded in terms of decrease luminescence over time.
Generally, these tests are carried out in the presence of an adsorbent which is referred to as using a modified Microtox® test.
In one embodiment of the invention, the solid-phase adsorbent is added to samples of toxicants and left for 30 minutes at ambient temperature. The amount of solid adsorbent and the concentrations of toxicant used are varied.
During this time, rehydration of the freeze-dried Microtox® bacteria as an aqueous suspension is performed, and it is left to stabilize at 15° C. for 15 minutes. […]
At the same time, a control sample of bacteria is monitored for comparison. […]
After 30 minutes of incubation, the bioluminescence is measured using a photometer, and data is recorded in terms of decrease of luminescence over time.

Vibrio fischeri [3] = assay: Toxicity assay with freeze-dried (stabilized) silica-based bacterial reagent vs standard Microtox reagent; assay type: cell-based; conditions: 10 ppm malathion; FIG. 5
Method: Stabilization of the bacteria used in the standard Microtox® test is performed by freeze-drying, and the effects of stabilization on such a bacteria-silica mixture were also investigated. A bacteria-silica mixture at a specific bacteria to silica ratio is subjected to freeze-drying at −30° C. for 6 hours under a vacuum, i.e. 0.1 hPa. Thereafter, the temperature is ramped up to +15° C. at increments of 10° C. per 15 minutes, retaining the vacuum, and then held at +15° C. for 8 hours.
Tests are then run to compare this freeze-dried mixture with the standard Microtox® freeze-dried reagent.

| Structure (SMILES) | toxic effect of aqueous toxicant on bioluminescence with bacteria immobilized by adsorption onto a solid surface, compared to free bacteria (Vibrio fischeri [1]) | toxicity effect (effect on luminescence) when toxicant is adsorbed onto a solid surface, compared to aqueous toxicant (Vibrio fischeri [2]) | % toxic effect with stabilized silica-based reagent compared to standard Microtox reagent (Vibrio fischeri [3]) |
| --- | --- | --- | --- |
| CCOC(=O)CC(SP(=S)(OC)OC)C(=O)OCC (centres unmarked) [malathion] | enhanced | increased | increased |
| Oc1ccccc1 [phenol] | enhanced | increased | – |
